Laboratory results reported in the supplement of paper PMC10307832.

Legend:
Assay in all cases: relative viability (nuclei count vs DMSO), 5 days (fraction); higher = more cells survive
[1] = compound: CN(c1ncccc1CNc1nc(Nc2ccc3c(c2)CC(=O)N3)ncc1C(F)(F)F)S(C)(=O)=O + Nc1nc2[nH]cc(CCc3ccc(C(=O)N[C@@H](CCC(=O)O)C(=O)O)cc3)c2c(=O)[nH]1 [Pemetrexed] (partner 0.2 µM)
Summary of the method: (§1)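 Each reported value is a median over duplicate plates. It expresses relative viability: treated-well nuclei count divided by vehicle-well nuclei count. Lung cancer cell lines in 1536-well plates were dosed by pin tool a day after seeding, alone with one drug or with a fixed anchor-drug dose plus five library-drug doses (not always all listed) in √10 steps, and nuclei were counted after 5 days.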

[2] = compound: CN(c1ncccc1CNc1nc(Nc2ccc3c(c2)CC(=O)N3)ncc1C(F)(F)F)S(C)(=O)=O + COc1cccc2cc(-c3nc([C@H]4CC[C@H](C(=O)O)CC4)n4ncnc(N)c34)[nH]c12 [OSI-027] (partner 0.5 µM)
Summary of the method: as §1

[3] = compound: CN(c1ncccc1CNc1nc(Nc2ccc3c(c2)CC(=O)N3)ncc1C(F)(F)F)S(C)(=O)=O + COc1cc2c(Oc3ccc(NC(=O)C4(C(=O)Nc5ccc(F)cc5)CC4)cc3F)ccnc2cc1OCCCN1CCOCC1 [Foretinib] (partner 0.25 µM)
Summary of the method: as §1

[4] = compound: CN(c1ncccc1CNc1nc(Nc2ccc3c(c2)CC(=O)N3)ncc1C(F)(F)F)S(C)(=O)=O + NC(=O)Nc1cc(-c2cccc(F)c2)sc1C(=O)N[C@H]1CCCNC1 [AZD7762] (partner 0.2 µM)
Summary of the method: as §1

Cell Line | relative viability ([1]; first compound 0.01 µM) | relative viability ([1]; first compound 0.03162 µM) | relative viability ([1]; first compound 0.1 µM) | relative viability ([1]; first compound 0.3162 µM) | relative viability ([1]; first compound 1 µM) | relative viability ([2]; first compound 0.01 µM) | relative viability ([2]; first compound 0.03162 µM) | relative viability ([2]; first compound 0.1 µM) | relative viability ([2]; first compound 0.3162 µM) | relative viability ([2]; first compound 1 µM) | relative viability ([3]; first compound 0.01 µM) | relative viability ([3]; first compound 0.03162 µM) | relative viability ([3]; first compound 0.1 µM) | relative viability ([3]; first compound 0.3162 µM) | relative viability ([3]; first compound 1 µM) | relative viability ([4]; first compound 0.01 µM) | relative viability ([4]; first compound 0.03162 µM) | relative viability ([4]; first compound 0.1 µM) | relative viability ([4]; first compound 0.3162 µM) | relative viability ([4]; first compound 1 µM)
COR-L 105 | 1.09 | 1.06 | 1.07 | 1.11 | 1.05 | 0.668 | 0.784 | 0.747 | 0.615 | 0.583 | 1 | 1.27 | 0.989 | 0.848 | 0.773 | – | – | – | – | –
LK-2 | 0.309 | 0.28 | 0.252 | 0.251 | 0.29 | 0.198 | 0.157 | 0.244 | 0.205 | 0.18 | 1.02 | 1.06 | 1.21 | 1.3 | 1.52 | 0.542 | 0.517 | 0.413 | 0.434 | 0.397
NCI-H727 | – | – | – | – | – | 0.782 | 0.75 | 0.649 | 0.59 | 0.537 | 0.836 | 0.873 | 0.932 | 1 | 0.891 | 0.595 | 0.555 | 0.447 | 0.842 | 0.69
RERF-LC-KJ | 0.428 | 0.355 | 0.496 | 0.515 | 0.575 | 0.632 | 0.585 | 0.529 | 0.656 | 0.573 | 0.867 | 1.03 | 0.861 | 0.843 | 0.939 | 0.89 | 1.08 | 1.03 | 1.04 | 1.07
NCI-H2023 | 0.181 | 0.241 | 0.221 | 0.228 | 0.214 | 0.412 | 0.464 | 0.404 | 0.425 | 0.393 | 0.791 | 0.715 | 0.731 | 0.752 | 0.642 | – | – | – | – | –
NCI-H322M | 0.615 | 0.606 | 0.651 | 0.635 | 0.714 | 0.562 | 0.598 | 0.537 | 0.599 | 0.623 | 1.05 | 1.09 | 0.986 | 1.21 | 1.31 | 0.584 | 0.556 | 0.62 | 0.663 | 0.813
NCI-H1666 | 0.877 | 0.82 | 0.805 | 0.78 | 0.787 | 0.779 | 0.841 | 0.792 | 0.695 | 0.556 | 0.977 | 0.874 | 0.851 | 0.976 | 0.843 | 0.978 | 0.834 | 0.838 | 0.932 | 0.847
SW 900 | 0.49 | 0.459 | 0.477 | 0.484 | 0.51 | 0.623 | 0.574 | 0.659 | 0.514 | 0.49 | 0.796 | 0.964 | 0.872 | 0.894 | 0.566 | 0.579 | 0.688 | 0.784 | 0.594 | 0.733
NCI-H2087 | 0.695 | 0.751 | 0.685 | 0.728 | 0.584 | 0.513 | 0.766 | 0.594 | 0.659 | 0.585 | 1.04 | 1.03 | 1.02 | 1.2 | 0.974 | 1.28 | 1.3 | 1.32 | 1.35 | 1.2
LU99A | 0.25 | 0.156 | 0.184 | 0.203 | 0.178 | 0.284 | 0.279 | 0.27 | 0.277 | 0.352 | 0.838 | 0.873 | 0.841 | 0.947 | 0.929 | 0.377 | 0.507 | 0.509 | 0.572 | 0.476
HCC-366 | 0.219 | 0.172 | 0.164 | 0.172 | 0.186 | 0.786 | 1.01 | 0.846 | 0.996 | 0.973 | 0.899 | 0.925 | 0.942 | 0.982 | 0.781 | 0.378 | 0.329 | 0.319 | 0.288 | 0.34
EKVX | 0.436 | 0.413 | 0.347 | 0.401 | 0.382 | 0.757 | 0.711 | 0.618 | 0.685 | 0.614 | 0.815 | 0.924 | 1.15 | 0.741 | 0.802 | 0.723 | 0.676 | 0.747 | 0.838 | 0.748
NCI-H2342 | 0.775 | 0.885 | 0.801 | 0.789 | 0.757 | 0.579 | 0.614 | 0.617 | 0.519 | 0.57 | 1.15 | 0.976 | 0.927 | 0.953 | 0.999 | 0.506 | 0.516 | 0.472 | 0.402 | 0.404
NCI-H1755 | 0.478 | 0.451 | 0.426 | 0.398 | 0.487 | 0.708 | 0.789 | 0.737 | 0.678 | 0.699 | 0.88 | 0.983 | 0.9 | 0.832 | 0.833 | 0.585 | 0.398 | 0.488 | 0.502 | 0.437
NCI-H647 | 0.192 | 0.163 | 0.167 | 0.178 | 0.17 | 0.656 | 0.76 | 0.683 | 0.62 | 0.592 | 1.18 | 1.04 | 1.14 | 1.1 | 1.22 | 0.383 | 0.515 | 0.611 | 0.566 | 0.471
LC-2-ad | 0.283 | 0.3 | 0.274 | 0.285 | 0.274 | 0.874 | 0.851 | 0.905 | 0.827 | 0.758 | 0.851 | 0.865 | 0.967 | 0.939 | 0.933 | 0.864 | 0.808 | 0.892 | 0.768 | 0.811
